Source: article PMC10909971, “Glucose 6‐phosphate dehydrogenase variants increase NADPH pools for yeast isoprenoid production” (FEBS Open Bio, 2024)
Read-outs that look alike come from different tables or passages of the source. Blank lines part the entries; values can stand above or below the molecule they belong to.

How the values were obtained:
[1] = test system: T1, G6PD-L-6PGL (fusion with linker); conditions: read-out: G6PD-L-6PGL, 100 mM Tris-HCl pH 8.0, 10 mM MgCl2, 25 °C, G6PD domain
T1 construct: gene ZWF1

[2] = test system: T2, G6PD-6PGL (linker-less fusion); conditions: read-out: G6PD-6PGL, 100 mM Tris-HCl pH 8.0, 10 mM MgCl2, 25 °C, G6PD domain
T2 construct: gene ZWF1

purified protein = substrate: NC(=O)c1ccc[n+]([C@@H]2O[C@H](COP(=O)(O)OP(=O)(O)OC[C@H]3O[C@@H](n4cnc5c(N)ncnc54)[C@H](OP(=O)(O)O)[C@@H]3O)[C@@H](O)[C@H]2O)c1; experiment: purified protein; conditions: G6P held constant, 100 mM Tris-HCl pH 8.0, 10 mM MgCl2, 25 °C

B1: ScG6PD (G6PD, ZWF1) (Saccharomyces cerevisiae S288C) (protein)
chain: MSEGPVKFEKNTVISVFGASGDLAKKKTFPALFGLFREGYLDPSTKIFGYARSKLSMEEDLKSRVLPHLKKPHGEADDSKVEQFFKMVSYISGNYDTDEGFDELRTQIEKFEKSANVDVPHRLFYLALPPSVFLTVAKQIKSRVYAENGITRVIVEKPFGHDLASARELQKNLGPLFKEEELYRIDHYLGKELVKNLLVLRFGNQFLNASWNRDNIQSVQISFKERFGTEGRGGYFDSIGIIRDVMQNHLLQIMTLLTMERPVSFDPESIRDEKVKVLKAVAPIDTDDVLLGQYGKSEDGSKPAYVDDDTVDKDSKCVTFAAMTFNIENERWEGVPIMMRAGKALNESKVEIRLQYKAVASGVFKDIPNNELVIRVQPDAAVYLKFNAKTPGLSNATQVTDLNLTYASRYQDFWIPEAYEVLIRDALLGDHSNFVRDDELDISWGIFTPLLKHIERPDGPTPEIYPYGSRGPKGLKEYMQKHKYVMPEKHPYAWPVTKPEDTKDN
Km (purified protein): 0.6 ± 0.1 µM

B2: ScG6PD (G6PD, ZWF1) (Saccharomyces cerevisiae S288C; N403D) (protein)
chain: MSEGPVKFEKNTVISVFGASGDLAKKKTFPALFGLFREGYLDPSTKIFGYARSKLSMEEDLKSRVLPHLKKPHGEADDSKVEQFFKMVSYISGNYDTDEGFDELRTQIEKFEKSANVDVPHRLFYLALPPSVFLTVAKQIKSRVYAENGITRVIVEKPFGHDLASARELQKNLGPLFKEEELYRIDHYLGKELVKNLLVLRFGNQFLNASWNRDNIQSVQISFKERFGTEGRGGYFDSIGIIRDVMQNHLLQIMTLLTMERPVSFDPESIRDEKVKVLKAVAPIDTDDVLLGQYGKSEDGSKPAYVDDDTVDKDSKCVTFAAMTFNIENERWEGVPIMMRAGKALNESKVEIRLQYKAVASGVFKDIPNNELVIRVQPDAAVYLKFNAKTPGLSNATQVTDLDLTYASRYQDFWIPEAYEVLIRDALLGDHSNFVRDDELDISWGIFTPLLKHIERPDGPTPEIYPYGSRGPKGLKEYMQKHKYVMPEKHPYAWPVTKPEDTKDN
Km (purified protein): 0.8 ± 0.1 µM

Further lines, results first:

Km ([1]; G6P held constant): 5.6 ± 0.2 µM
Km ([2]; G6P held constant): 2.6 ± 0.4 µM
Molecule: NC(=O)c1ccc[n+]([C@@H]2O[C@H](COP(=O)(O)OP(=O)(O)OC[C@H]3O[C@@H](n4cnc5c(N)ncnc54)[C@H](OP(=O)(O)O)[C@@H]3O)[C@@H](O)[C@H]2O)c1 [NADP^+]

Km ([1]; NADP+ held constant): 2.3 ± 0.2 µM
Km ([2]; NADP+ held constant): 0.6 µM
Molecule: O=P(O)(O)OC[C@H]1OC(O)[C@H](O)[C@@H](O)[C@@H]1O (stereo partly drawn) [glucose 6‐phosphate]
